Here are results for one molecule from patent publication US11028051B2, “Tetrahydroquinoline-based bromodomain inhibitors” (St. Jude Children's Research Hospital, priority 2016, dated 2021).

Some results are limits rather than exact numbers.

The term Kd denotes the equilibrium constant for the complex coming apart.

In assay [1] the target is T1, BRD2-BD1 (Homo sapiens (Human), UniProt P25440). The experiment in a line: surface plasmon resonance analysis of binding. The following applies: SPR, BRD2(1) (printed MRD2(1)). The protocol:
(§1) a. Surface Plasmon Resonance (Biacore) Analysis of Binding to Brd2-BD1 and Brd2-BD2
(§2) SPR experiments were conducted at 15° C. using a SensiQ Pioneer optical biosensor (SensiQ Technologies). Poly-His tagged BRD2 constructs were immobilized on polycarboxylate-coated gold chips preimmobilized with nitrilotriacetic acid (His-Cap chips; SensiQ Technologies) by capture-coupling, a hybrid method of capture and amine coupling chemistry (Ref. A). The His-Cap chip was preconditioned and charged with Ni^2+ in equilibration buffer (10 mM HEPES pH 7.4, 150 mM NaCl, 50 μM EDTA, 0.005% Tween20) at a flow rate of 10 μL/min. The chip was washed with three 60 s injections of regeneration buffer (10 mM HEPES pH 8.3, 150 mM NaCl, 350 mM EDTA, 0.05% Tween20) and one 60 s injection of equilibration buffer and was charged with a 60 s injection of 500 mM NiCl2 in equilibration buffer, which added ˜55 RU of Ni^2+ per channel. […]
(§3) A series of buffer-only (blank) injections was included throughout the experiment to account for instrumental noise. The data were processed, double-referenced, solvent corrected and analyzed using the software package Qdat (version 2.5.3.5, SensiQ Technologies) (Ref B). The kinetic rate constants were determined by globally fitting the data to a 1:1 interaction model. Equilibrium dissociation constants (KD) were calculated as the quotient kd/ka.
For orientation: Surface plasmon resonance follows binding to a sensor surface in real time, without labels.
Target sequence in this assay (P25440 74-180): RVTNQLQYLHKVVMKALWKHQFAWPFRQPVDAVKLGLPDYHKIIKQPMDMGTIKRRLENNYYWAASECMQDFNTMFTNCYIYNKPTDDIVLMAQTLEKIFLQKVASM

In assay [2] the target is T2, BRD2-BD2 (Homo sapiens (Human), UniProt P25440). The experiment in a line: surface plasmon resonance analysis of binding. The following applies: SPR, BRD2(2). The protocol: as §1, §2, §3
Target sequence in this assay (P25440 344-453): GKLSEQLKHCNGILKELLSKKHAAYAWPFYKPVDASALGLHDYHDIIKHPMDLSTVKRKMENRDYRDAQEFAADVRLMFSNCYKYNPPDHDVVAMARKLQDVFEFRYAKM
For assay [3], the target named is T1, BRD2-BD1. Put plainly: isothermal titration calorimetry analysis of binding. The following applies: ITC, BRD2(1); read-out: KD (ITC). The protocol: (§4) b. Isothermal Titration Calorimetry Analysis of Binding to Brd2-BD1 and Brd2-BD2
(§5) Binding of compounds to BRD2 was monitored using an ITC200 (Microcal, Piscataway, N.J.). Either Brd2.1 (74-194) or Brd2.2 (348-455) was dialyzed overnight into a solution containing 50 mM HEPES, pH 7.0 and 150 mM NaCl at 15° C. Enzyme concentrations were determined after dialysis by absorbance at 280 nm using a molar extinction coefficient (ε280) of 25,565 M^−1 cm^−1 (2.1) or 16,055 M^−1 cm^−1 (2.2). Enzyme was diluted in dialysis buffer and 39.6 μL was loaded into the syringe. Compounds were dissolved in the same dialysis buffer and loaded in the cell to a volume of 204 μL. Injections were carried out by serial injections of enzyme; first, 1 injection of 1 μL, followed by 19 incremental injections of 2 μL, at 120 second intervals. Data from the first injection was excluded, due to pre-equilibration mixing between the contents of cell and syringe at the syringe tip. Peak areas were integrated, normalized, and then fitted by non-linear regression using the independent sites model in Origin™ (version 2.3.6, Microcal, Piscataway, N.J.).
A general note: Isothermal titration calorimetry measures the heat released or taken up as one component is titrated into another.
Target sequence in this assay (P25440 74-194): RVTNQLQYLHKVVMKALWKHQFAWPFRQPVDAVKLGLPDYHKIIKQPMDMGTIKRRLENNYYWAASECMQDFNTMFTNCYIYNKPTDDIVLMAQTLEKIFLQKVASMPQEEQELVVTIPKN

Assay [4] has as its target T2, BRD2-BD2. The description is as above. The following applies: ITC, BRD2(2); read-out: KD (ITC). As for the experimental part:
as §4, §5
Target sequence in this assay (P25440 348-455): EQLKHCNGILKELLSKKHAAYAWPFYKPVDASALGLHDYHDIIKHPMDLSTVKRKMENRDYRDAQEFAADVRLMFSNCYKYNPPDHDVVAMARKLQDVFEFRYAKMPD

On to `COC(=O)c1ccc(N[C@@H]2C[C@H](C)N(C(C)=O)c3ccc(-c4cccc(NC(C)=O)c4)cc32)cc1` [compound 4], for which the Kd in assay [1] is 132 nM; in assay [2], 13 nM; in assay [3], 25 nM; in assay [4] it was below 1 nM.
